Measurements as given in ChEMBL document CHEMBL1201862, “PubChem BioAssay data set” (2004).
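Test compounds were applied to cells in 96-well plates for 48 hours at 5 doses. Here, GI50 denotes the concentration required for 50% inhibition of growth.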 Calls of active or inactive are those of the source. No stated cut-off is given here; in the data, active = GI50 up to about 1.1 µM and inactive = higher.

Tests used:
Assay in all cases: NCI-60 cell line screen, 48 h
[1] = tested on: A549
[2] = tested on: BT-549
[3] = tested on: EKVX
[4] = tested on: HCT-116
[5] = tested on: HOP-92
[6] = tested on: Hs-578T
[7] = tested on: MCF7
[8] = tested on: MDA-N
[9] = tested on: Malme-3M
[10] = tested on: NCI-H23
[11] = tested on: NCI-H460
[12] = tested on: OVCAR-3
[13] = tested on: OVCAR-4
[14] = tested on: PC-3
[15] = tested on: RXF 393
[16] = tested on: SK-MEL-28
[17] = tested on: SK-MEL-2
[18] = tested on: SW-620
[19] = tested on: T47D
[20] = tested on: U-251

Measured: GI50

CCc1ccc(CCN2CCCCC2)nc1
inactive: [1] > 100 µM | [2] > 100 µM | [3] > 100 µM | [4] > 100 µM | [5] 46.3 µM | [6] 56.9 µM | [7] > 100 µM | [8] > 100 µM | [9] > 100 µM | [10] > 100 µM | [11] > 100 µM | [12] 92.3 µM | [13] > 100 µM | [14] > 100 µM | [15] > 100 µM | [16] > 100 µM | [17] > 100 µM | [18] > 100 µM | [19] > 100 µM | [20] > 100 µM

COc1cc(/C=N/N=C2NCCN2)ccc1O
inactive: [1] > 100 µM | [2] > 100 µM | [3] > 100 µM | [4] > 100 µM | [5] > 100 µM | [6] > 100 µM | [7] > 100 µM | [8] > 100 µM | [9] > 100 µM | [10] > 100 µM | [11] > 100 µM | [12] > 100 µM | [13] > 100 µM | [14] > 100 µM | [15] > 100 µM | [16] > 100 µM | [17] > 100 µM | [18] > 100 µM | [19] > 100 µM | [20] > 100 µM
